In publication PMC11651172, “Suite of Biochemical and Cell-Based Assays for the Characterization of Kirsten Rat Sarcoma (KRAS) Inhibitors and Degraders” (ACS Pharmacology & Translational Science, 2024):
Entries after “also recorded” stand apart in the source; their conditions may differ. Read-outs that look alike come from different tables or passages of the source.

Columns and labels:
[1] = target: T1, KRAS(G12D) (Homo sapiens, UniProt P01116, G12D); test: targeted protein degradation assay (EFC); format: cell-based; conditions: A549 ED-KRAS(G12D) cells, 18 h, top dose 10 μM
T1 construct: knocking in an ED fragment (and the relevant mutation in KRAS) into the KRAS locus by CRISPR technology; ED tag (ePL, enhanced ProLink); host or cells: A549 (SPRINTer A549 KRAS G12D, CRISPR knock-in)
T1 sequence (P01116 1-188 isoform P01116-2 G12D): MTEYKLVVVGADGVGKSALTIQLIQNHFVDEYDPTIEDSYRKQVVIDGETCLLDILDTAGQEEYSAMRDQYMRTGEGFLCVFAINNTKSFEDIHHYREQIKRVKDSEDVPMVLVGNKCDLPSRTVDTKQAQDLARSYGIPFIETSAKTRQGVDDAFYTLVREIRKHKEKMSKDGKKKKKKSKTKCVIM
Description: (§1) We tested the KRAS(G12C)-specific protein degrader LC2 (Figure 1C) with our three KRAS cell lines in the developed protein degradation assay. The assay was set up in homogeneous 384-well format with an 11-point dose response curve, with a top dose of 10 μM and each dose tested in quadruplicate. Cells were incubated with LC2 for 18 h and at the end of incubation, detection reagents containing the complementing EA fragment were added to each well for chemiluminescence quantitation. Shown in Figure 6A, LC2 induced a loss of signal (an indication of protein degradation) in KRAS(G12C) cells with a DC50 of 1.9 μM and a Dmax of 69%, close to the previously described value.[25]
(§2) The gRNAs (crRNA), HiFi Cas9 Nuclease V3, and ATTO 550 tracrRNA used in this study to generate ED-tagged KRAS cell lines were purchased from Integrated DNA Technologies (Coralville, IA). Double-stranded DNAs containing ED or ePL (enhanced ProLink) were purchased from Eurofins Genomics Blue Heron (Bothell, WA). […] The gRNA was first annealed with fluorescence-labeled (ATTO-550) tracrRNA in a 1:1 ratio to form an RNA duplex, followed by incubation with Cas9 nuclease to generate Cas9-gRNA ribonucleoprotein (RNP). […] At 16 h postelectroporation, cells with high fluorescence at 550 nm were sorted to enrich the genome-edited cell populations. […]

[2] = target: T2, KRAS(WT) (Homo sapiens, UniProt P01116); test: targeted protein degradation assay (EFC); format: cell-based; conditions: A549 ED-KRAS(WT) cells, 18 h, top dose 10 μM
T2 construct: knocking in an ED fragment (and the relevant mutation in KRAS) into the KRAS locus by CRISPR technology; ED tag (ePL, enhanced ProLink); host or cells: A549 (SPRINTer A549 KRAS WT, homozygous CRISPR knock-in)
T2 sequence (P01116 1-188 isoform P01116-2): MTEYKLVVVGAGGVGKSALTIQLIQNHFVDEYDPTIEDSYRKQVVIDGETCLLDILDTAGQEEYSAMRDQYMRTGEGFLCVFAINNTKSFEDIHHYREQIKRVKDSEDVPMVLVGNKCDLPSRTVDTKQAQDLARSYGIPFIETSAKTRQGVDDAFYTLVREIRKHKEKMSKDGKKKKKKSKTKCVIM
Description: as §1, §2

[3] = target: T3, KRAS(G12C) (Homo sapiens, UniProt P01116, G12C); design: made in house; host or cells: HEK293 (transient transfection, unpurified extract); method as in PMID 32875077, PMID 34715575; conditions: Western blot, among three different cell lines; cited from earlier work
Target sequence in this assay (P01116 1-164 G12C): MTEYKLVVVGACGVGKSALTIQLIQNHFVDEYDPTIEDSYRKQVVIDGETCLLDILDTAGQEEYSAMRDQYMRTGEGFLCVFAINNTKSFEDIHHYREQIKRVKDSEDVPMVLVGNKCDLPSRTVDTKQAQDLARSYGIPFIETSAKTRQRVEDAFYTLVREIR

[4] = target: T3, KRAS(G12C); test: targeted protein degradation assay (EFC); format: cell-based; design: knocking in an ED fragment (and the relevant mutation in KRAS) into the KRAS locus by CRISPR technology; ED tag (ePL, enhanced ProLink); host or cells: A549 (SPRINTer A549 KRAS G12C, homozygous CRISPR knock-in)
Description: as §1, §2
Target sequence in this assay (P01116 1-188 isoform P01116-2 G12C): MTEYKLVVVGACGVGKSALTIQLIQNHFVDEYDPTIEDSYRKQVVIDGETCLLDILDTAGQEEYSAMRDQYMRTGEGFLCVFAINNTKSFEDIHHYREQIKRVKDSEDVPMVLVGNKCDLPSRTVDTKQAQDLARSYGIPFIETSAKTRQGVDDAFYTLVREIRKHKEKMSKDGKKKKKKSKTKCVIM

[5] = target: T1, KRAS(G12D); test: pulse target engagement assay; format: cell-based; conditions: KRAS(G12D) cells, 1 or 5 h incubation, 3 min at 67 °C
Description: (§3) Next, we explored the application of KRAS cell lines for a pulse target engagement (TE) assay to profile compounds or identify new ligands. The TE assay is based on the observation that the direct interaction between a compound and its cellular protein target increases the stability of the protein and reduces its turnover.[48],[49],[51] […] Therefore, in our pulse TE assay, cells are incubated with a compound and then subjected to an elevated temperature to induce protein denaturation. Compound binding protects the target protein from denaturation, and consequently preserves enzyme complementation activities with the cellular ED-tagged fusion protein, producing a robust chemiluminescent signal. In the absence of compound binding, the target protein forms denatured aggregates that leads to a loss of complementation ability and decreased chemiluminescent signal (Figure 7).
(§4) We next performed pulse TE assays with a panel of KRAS inhibitors on three KRAS cell lines. […] Cells were incubated with the compounds for 1 or 5 h, followed by a 3 min incubation at 67 °C.
(§5) The pulse target engagement assay was set up in a 96-well format with an 11-point dose response curve (triplicates/dose) and vehicle control. Cells were collected and diluted in complete medium that allowed for a cell seeding of 5000 cells in 40 μL per well in 96-well PCR plates (black, Thermo Fisher Scientific, Waltham, MA). […]

[6] = target: T2, KRAS(WT); test: pulse target engagement assay; format: cell-based; conditions: KRAS(WT) cells, 1 or 5 h incubation, 3 min at 67 °C
Description: as §3, §4, §5

[7] = target: T3, KRAS(G12C); test: pulse target engagement assay; format: cell-based; design: knocking in an ED fragment (and the relevant mutation in KRAS) into the KRAS locus by CRISPR technology; ED tag (ePL, enhanced ProLink); host or cells: A549 (SPRINTer A549 KRAS G12C, homozygous CRISPR knock-in); conditions: KRAS(G12C) cells, 1 or 5 h incubation, 3 min at 67 °C
Description: as §3, §4, §5
Target sequence in this assay (P01116 1-188 isoform P01116-2 G12C): as above

SMILES | protein degradation [1] | protein degradation [2] | DC50 [3] [µM] | Dmax [3] | Dmax ([4]; A549) [%] | DC50 ([4]; A549 ED-KRAS(G12C) cells, 18 h incubation) [µM] | target engagement (affinity in words) [5] | target engagement (affinity in words) [6] | target engagement (affinity in words) [7]
C=C(F)C(=O)N1CCN(c2nc(OC[C@@H]3CCCN3CCCOCCC(=O)N[C@H](C(=O)N3C[C@H](O)C[C@H]3C(=O)NCc3ccc(-c4scnc4C)cc3)C(C)(C)C)nc3c2CCN(c2cccc4cccc(Cl)c24)C3)C[C@@H]1CC#N [LC2] | some degradation in KRAS(G12D) cells at high doses; also recorded: low levels of KRAS(G12D) degradation only at higher concentrations | sparing KRAS(WT) | 0.25 to 0.76 | 75%–90% | 69 | 1.9 |  |  | 
C#Cc1c(F)ccc2cc(O)cc(-c3ncc4c(N5CC6CCC(C5)N6)nc(OC[C@@]56CCCN5C[C@H](F)C6)nc4c3F)c12 [MRTX1133] |  |  |  |  |  |  | high selectivity; also recorded: high affinity | some interaction; also recorded: some binding to KRAS(G12C) and KRAS(WT) proteins at high concentration | some interaction; also recorded: some binding to KRAS(G12C) and KRAS(WT) proteins at high concentration
